Experimental data taken from PMC12169608, “Peptidomimetic Phenoxymethyl Ketone Warheads as Potent Dual-Mode Inhibitors against SARS-CoV‑2 M^pro and Cathepsin” (Journal of Medicinal Chemistry, 2025).

What was measured:
[1] = Plasma protein binding (ultra-centrifugation)
[2] = Mouse hepatocyte stability
[3] = biological target: mouse cathepsin L (mCTSL) (Mus musculus, UniProt P06797); test: mCTSL biochemical assay
[4] = biological target: mouse cathepsin B (mCTSB) (Mus musculus, UniProt P10605); test: mCTSB biochemical assay
[5] = test system: Vero E6 cells
[6] = Kinetic solubility; settings: PBS buffer pH 7.4
[7] = biological target: SARS-CoV-2 M^pro (Severe acute respiratory syndrome coronavirus 2, UniProt P0DTD1); test: biochemical; assay type: biochemical
[8] = biological target: T1, human cathepsin L (hCTSL) (Homo sapiens, UniProt P07711); test: hCTSL biochemical assay
T1 construct: purchased R&D Systems

[9] = biological target: luciferase-expressing VSV (ΔG) pseudotyped with Spike from SARS-CoV-2; test: microbe, parasite or virus in culture; assay type: cell-based
[10] = biological target: human cathepsin B (hCTSB) (Homo sapiens, UniProt P07858); test: hCTSB biochemical assay
[11] = pH 7.4

T1 sequence (P07711 114-333): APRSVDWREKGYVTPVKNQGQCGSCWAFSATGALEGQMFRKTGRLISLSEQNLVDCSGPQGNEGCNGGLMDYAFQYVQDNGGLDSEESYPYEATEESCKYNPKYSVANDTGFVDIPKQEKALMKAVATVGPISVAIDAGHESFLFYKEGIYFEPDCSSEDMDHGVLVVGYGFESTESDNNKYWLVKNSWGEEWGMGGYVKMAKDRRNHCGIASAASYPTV
Chain of mouse cathepsin L (mCTSL) (P06797 114-334): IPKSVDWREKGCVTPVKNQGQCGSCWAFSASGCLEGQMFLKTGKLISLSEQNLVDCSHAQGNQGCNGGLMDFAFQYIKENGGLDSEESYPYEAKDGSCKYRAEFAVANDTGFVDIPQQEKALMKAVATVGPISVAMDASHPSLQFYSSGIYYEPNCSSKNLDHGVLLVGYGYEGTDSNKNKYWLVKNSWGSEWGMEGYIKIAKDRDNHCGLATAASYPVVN
Chain of mouse cathepsin B (mCTSB) (P10605 80-339): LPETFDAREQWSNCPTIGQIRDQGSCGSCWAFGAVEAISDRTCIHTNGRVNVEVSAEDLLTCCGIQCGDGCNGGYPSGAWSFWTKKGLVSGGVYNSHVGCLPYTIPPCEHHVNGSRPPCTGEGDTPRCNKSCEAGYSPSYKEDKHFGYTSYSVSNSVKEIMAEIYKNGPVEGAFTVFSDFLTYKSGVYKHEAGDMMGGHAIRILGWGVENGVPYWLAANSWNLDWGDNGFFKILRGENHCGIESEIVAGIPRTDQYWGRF

N-((S)-3-(3-Fluorophenyl)-1-oxo-1-(((S)-2-oxo-5-(5-oxo-1,5-dihydro-4H-1,2,4-triazol-4-yl)-1-(2,3,5,6-tetrafluoro-4-(2-hydroxypropan-2-yl)phenoxy)pentan-3-yl)amino)propan-2-yl)-4-methoxy-1H-indole-2-carboxamide [compound 12]
mouse plasma protein binding, fraction bound (Fb) [1]: 99.69% | mouse plasma protein binding, fraction unbound (Fu) [1]: 0.31% | CLint (mouse hepatocytes + ritonavir 4:1) ([2]; compound/ritonavir 4:1): 37.1 μL/min/10^6 cells | t1/2 (mouse hepatocytes + ritonavir 4:1) ([2]; compound/ritonavir 4:1): 46.7 min | CLint (mouse hepatocytes) ([2]; without ritonavir): 76.8 μL/min/10^6 cells | t1/2 (mouse hepatocytes) ([2]; without ritonavir): 22.6 min | pIC50 (mouse CTSL) [3]: 7.66 | pIC50 (mouse CTSB) [4]: > 8.16 | pCC50 (CPE), cytotoxicity [5]: < 5.00 | kinetic solubility [6]: 5.84 µM | M^pro biochemical assay pIC50 [7]: 6.75 | hCTSL biochemical assay pIC50 [8]: 9.48 | selectivity for hCTSL over M^pro [8]: more than 500 fold | Entry reporter assay pEC50 [9]: 5.14 | hCTSB biochemical assay pIC50 [10]: 6.65 | logD [11]: 2.88
